Experimental data published in ChEMBL document CHEMBL1201862, “PubChem BioAssay data set” (2004).
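Exposure lasted 48 hours, with cells grown in 96-well plates and compounds tested at five concentrations. Here, GI50 denotes the concentration required for 50% inhibition of growth.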 Calls of active or inactive are those of the source. No stated cut-off is given here; in the data, active = GI50 up to about 1.1 µM and inactive = higher.

What was measured:
Assay in all cases: growth of human tumour cells (NCI), 48 h
[1] = test system: PC-3
[2] = test system: LOX IMVI
[3] = test system: SR
[4] = test system: K562
[5] = test system: HCT-116
[6] = test system: SF-539
[7] = test system: HL-60
[8] = test system: SK-MEL-5
[9] = test system: NCI-H23
[10] = test system: BT-549
[11] = test system: MDA-MB-231
[12] = test system: MDA-N
[13] = test system: CCRF-CEM
[14] = test system: OVCAR-5
[15] = test system: SK-MEL-28
[16] = test system: M14
[17] = test system: HOP-62
[18] = test system: OVCAR-4
[19] = test system: TK-10
[20] = test system: UO-31
[21] = test system: SNB-75
[22] = test system: T47D
[23] = test system: SW-620
[24] = test system: OVCAR-3
[25] = test system: RXF 393
[26] = test system: EKVX
[27] = test system: OVCAR-8
[28] = test system: CAKI-1
[29] = test system: UACC-257
[30] = test system: UACC-62
[31] = test system: NCI-H522
[32] = test system: MOLT-4
[33] = test system: Malme-3M
[34] = test system: KM12
[35] = test system: HOP-92
[36] = test system: RPMI-8226
[37] = test system: SNB-19
[38] = test system: COLO 205
[39] = test system: HCC 2998
[40] = test system: NCI-H226
[41] = test system: SF-295
[42] = test system: IGROV-1
[43] = test system: NCI/ADR-RES
[44] = test system: Hs-578T
[45] = test system: SK-MEL-2
[46] = test system: A549
[47] = test system: SK-OV-3
[48] = test system: HCT-15
[49] = test system: SN12C
[50] = test system: A498
[51] = test system: HT-29
[52] = test system: SF-268
[53] = test system: ACHN
[54] = test system: NCI-H460
[55] = test system: 786-0
[56] = test system: U-251
[57] = test system: MCF7
[58] = test system: DU-145
[59] = test system: MDA-MB-435

In the case of COc1cc(OC)cc(C(=O)NC2=C(Cl)C(=O)c3ccccc3C2=O)c1, the GI50 [1] is reported as 1230 nM (inactive), the GI50 [2] is reported as 1990 nM (inactive) and the GI50 [3] is reported as 1060 nM (active). The GI50 [4] was 798 nM (active), the GI50 [5] was 668 nM (active) and the GI50 [6] was 4450 nM (inactive). The GI50 [7] was 189 nM (active), the GI50 [8] was 2040 nM (inactive) and the GI50 [9] was 2430 nM (inactive). For the same molecule, the GI50 [10] was 2270 nM (inactive), the GI50 [11] was 4080 nM (inactive) and the GI50 [12] was 1910 nM (inactive). For the same molecule, the GI50 [13] was 355 nM (active), the GI50 [14] was 4920 nM (inactive) and the GI50 [15] was 2960 nM (inactive). For the same molecule, the GI50 [16] was 1070 nM (active), the GI50 [17] was 12800 nM (inactive) and the GI50 [18] was 1790 nM (inactive). For the same molecule, the GI50 [19] was 2810 nM (inactive), the GI50 [20] was 3150 nM (inactive) and the GI50 [21] was 2670 nM (inactive). The GI50 [22] was 1460 nM (inactive), the GI50 [23] was 1010 nM (active) and the GI50 [24] was 1880 nM (inactive). For the same molecule, the GI50 [25] was 1040 nM (active), the GI50 [26] was 9750 nM (inactive) and the GI50 [27] was 3100 nM (inactive). For the same molecule, the GI50 [28] was 5400 nM (inactive), the GI50 [29] was 1990 nM (inactive) and the GI50 [30] was 361 nM (active). For the same molecule, the GI50 [31] was 728 nM (active), the GI50 [32] was 1670 nM (inactive) and the GI50 [33] was 1740 nM (inactive). For the same molecule, the GI50 [34] was 1620 nM (inactive), the GI50 [35] was 1450 nM (inactive) and the GI50 [36] was 706 nM (active). The GI50 [37] was 5500 nM (inactive), the GI50 [38] was 2520 nM (inactive) and the GI50 [39] was 3480 nM (inactive). The GI50 [40] was 3300 nM (inactive), the GI50 [41] was 2920 nM (inactive) and the GI50 [42] was 2180 nM (inactive). The GI50 [43] was 2280 nM (inactive), the GI50 [44] was 3300 nM (inactive) and the GI50 [45] was 1650 nM (inactive). For the same molecule, the GI50 [46] was 4340 nM (inactive), the GI50 [47] was 2490 nM (inactive) and the GI50 [48] was 940 nM. The GI50 [49] was 3150 nM (inactive), the GI50 [50] was 14100 nM (inactive) and the GI50 [51] was 4670 nM (inactive). The GI50 [52] was 6120 nM (inactive), the GI50 [53] was 780 nM (active) and the GI50 [54] was 2340 nM (inactive). The GI50 [55] was 2960 nM (inactive), the GI50 [56] was 1940 nM (inactive) and the GI50 [57] was 2840 nM (inactive). For the same molecule, the GI50 [58] was 4580 nM (inactive) and the GI50 [59] was 1950 nM (inactive).
